One data set has as its system cells. The note with it: HN mutant compared with HN; cited from earlier work.
Data set [1] deals with white blood cells. The format is in vivo. The method, then: (§1) Body weight (BW) was recorded at autopsy.
The effect of a potent HN analog HNG (HN-S14G) (5mg/KG/day, IP) with and without concomitant cyclophosphamide (CP, 200 mg IP) treatment was administered to 4 adult healthy mice in each group. Another four mice served as controls. Two days after treatment, the animals were killed and their peripheral blood cells were collected and the blood cell counts were assessed by a blood cell counter.

The conditions of data set [2]: mouse, in vivo. The method, then: (§2) Mice were injected with heparin (1300 IU/kg BW, ip) 15 min before sacrifice by sodium pentobarbital (200 mg/kg BW IP). Body weight (BW) was recorded at autopsy. Blood samples were collected from the right ventricle of each mouse immediately after death and used for complete blood count using an automated cell counter (VetScanHM2, ABAXIS, Union City, Calif.). Plasma was separated and stored at −20° C. for subsequent HNG, IGF-1 and IGFBP-1 measurements by specific and sensitive ELISA assays as previously described (Chin et al., Endocrinology. 2013; 154:3739-44; Hwang et al, Growth Horm IGF Res 2008; 18: 65-74).
(§3) Twenty-five young adult (12-week-old) male mice (C57BL/6J) were used for this experiment in which 5 mice were used as control and 20 mice of each were intravenously inoculated via the tail vein with 1×10^5 murine B16 melanoma cells. 20 tumor-bearing mice were randomly divided into 4 groups with 5 mice in each group received 1) no treatment; 2) HNG alone; 3) CP alone; and 4) a combination treatment with the doses and duration described above.

For data set [3] the following is noted: mouse, in vivo. The source holds these as a separate data set.
For data set [4], the system named is peripheral blood leucocytes. The method, then:
as §2, §3

Data set [5] has as its system red blood cell or platelet. In words: Red blood cell and platelet counts in B16 tumor-bearing mice. The protocol:
as §2, §3

Data set [6] concerns IGF-1. Description: Plasma IGF-1 levels (ELISA) in B16 tumor-bearing mice. The format is in vivo, mouse. To be noted: treatment alone, tumor-bearing mice (FIG. 3B). The protocol: as §2, §3
The test system of data set [7] is IGF-1. Description: Plasma IGF-1 levels among groups in healthy mice (Table 6). Type of data set: in vivo, mouse. The note with it: mean ± SEM. The method, then: as §1
Data set [8] concerns murine B16 melanoma cells. Description: Lung melanoma metastases in B16 tumor-bearing mice. Type of data set: in vivo, mouse. The note with it: treatment alone vs non-treated tumor-bearing mice.
From the text: In this study the tumor loading dose was 1×10^5 B16 cells per mouse to examine the effects of HNG on peripheral blood leucocytes, plasma IGF-1 and IGFBP-1 levels while confirming its additive or synergistic effect on CP-induced suppression of lung melanoma metastases. Twenty-five young adult (12-week-old) male mice (C57BL/6J) were used for this experiment in which 5 mice were used as control and 20 mice of each were intravenously inoculated via the tail vein with 1×10^5 murine B16 melanoma cells. 20 tumor-bearing mice were randomly divided into 4 groups with 5 mice in each group received 1) no treatment; 2) HNG alone; 3) CP alone; and 4) a combination treatment with the doses and duration described above.
The subject of another data set is IGFBP-1. In words: Plasma IGFBP-1 levels among groups in healthy mice (Table 6). The format is in vivo, mouse. To be noted: mean ± SEM. The protocol: as §1
In a further data set the test system is peripheral leucocytes. Description: Peripheral leucocytes among treatment groups of healthy mice (Table 7). To be noted: mean ± SEM. Type of data set: in vivo, mouse. The protocol:
as §1

Data set [9] deals with white blood cells. Type of data set: in vivo. To be noted: CP 200 mg IP single dose, melanoma-bearing mice (FIG. 2). The method, then: The effect of a potent HN analog HNG (HN-S14G) with or without cyclophosphamide (CP) in a mouse melanoma with lung metastasis model was studied. Five mice were used as control (Con) and 40 mice were inoculated intravenously with B16 murine melanoma cells. Of these mice five received no further treatment (NT). A week later the remaining 35 mice (n=5 per group) were treated for additional 2 weeks with: • 1) HNG 0.05 mg/KG body weight (BW) daily IP injection for 2 weeks; • 2) HNG 0.5 mg mg/Kg BW daily IP injection for 2 weeks; • 3) HNG 5 mg/Kg BW daily IP injection for 2 weeks; • 4) a single CP (200 mg IP single dose) injection+HNG 0.05 mg/KG body weight (BW) daily IP injection for 2 weeks; • 5) a single CP (200 mg IP single dose) injection+HNG 0.5 mg mg/Kg BW daily IP injection for 2 weeks; • 6) a single CP (200 mg IP single dose) injection HNG 0.5 mg mg/Kg BW daily IP injection for 2 weeks; • 7) a single CP (200 mg IP single dose) injection+HNG 5 mg mg/Kg BW daily IP injection.
All mice were sacrificed three weeks after tumor inoculation and two weeks after CP/HNG treatment. Blood was obtained for the measurement of white blood cell (WBC) count by a Coulter Counter.

The subject of another data set is germ cells. To be noted: cited from earlier work.
[10] abbreviates: during in vivo treatment with CP (Drumond, et al., 2011).

Marks after values point to notes of the source that are not given here. Ends that are not written are not given here.

“HN-S7A: MAPRGFACLLLLTSEIDLPVKRRA (SEQ ID NO: 24); Ser7 to Ala”: the “Cytoprotective Action” value with cells is recorded as “Not effective, prevents”.

As for “HN-C8A: Cys8 to Ala; MAPRGFSALLLLTSEIDLPVKRRA (SEQ ID NO: 42)”, the “Cytoprotective Action” value in the data set with cells is “Not effective, prevents”.

Consider “HN-C8P: MAPRGFSPLLLLTSEIDLPVKRRA (SEQ ID NO: 25); Cys8 to Pro”, for which the “Cytoprotective Action” value with cells was “Not effective, blocks”.

Take “HN: MAPRGFSCLLLLTSEIDLPVKRRA (SEQ ID NO: 1); 24-amino acid mitochondrial derived peptide”: the “total number of white blood cells (WBC)” value in the data set on white blood cells [1] (HNG 5mg/KG/day IP alone, adult healthy mice, two days after treatment, vs controls (FIG. 1A)) is “increased slightly but significantly”.

Turning to MAPRGFSCLLLLTGEIDLPVKRRA [HNG], in [2], the “plasma HNG levels” value was “increased”. Further, the “HNG (ng/ml)” value in data set [3] is listed as 80.8 ± 7.8^b ng/ml.

Consider “HN-L12A: HN mutant, Leu12 to Ala (MAPRGFSCLLLATSEIDLPVKRRA; Humanin; UniProt Q8IVG9 1-24, looked up, variant L12A)”, for which the “Cytoprotective Action” value in the data set with cells was “HN antagonist, forms”.

Consider “HN-F6A: MAPRGASCLLLLTSEIDLPVKRRA (SEQ ID NO: 22); Phe6 to Ala”, for which the “Cytoprotective Action” value in the data set on cells was “Similar/more effective”.

With `O=P1(N(CCCl)CCCl)NCCCO1` (stereo not shown) [CP, cyclophosphamide monohydrate], the “number of white blood cells” value in data set [4] (CP alone vs non-treated tumor-bearing mice (FIG. 4A)) is “significantly suppressed”. In addition, in [4] (CP alone vs non-treated tumor-bearing mice (FIG. 4B)), the granulocytes entry is “significantly suppressed”. Moreover, the monocytes result in [4] (CP alone vs non-treated tumor-bearing mice (FIG. 4C)) is on record as “significantly suppressed”. The lymphocytes result in [4] (CP alone vs non-treated tumor-bearing mice (FIG. 4D)) was “significantly suppressed”. In addition, in data set [5], the platelet counts entry is “no significant decreases” and the “red blood cell counts” value was “no significant decreases”. Further, in the data set on IGF-1 [6], the “plasma IGF-1 levels” value is reported as “significantly suppressed”. Further, the “IGF-1 (ng/ml)” value with IGF-1 [7] is listed as 182.4 ± 10.5^c ng/ml. Moreover, the “number of metastatic tumors in the lungs” value in data set [8] is on record as “significantly decreased”. Further, the “IGFBP-1 (ng/ml)” value with IGFBP-1 is recorded as 7.4 ± 1.3^b ng/ml. For the same compound, in the data set with peripheral leucocytes, the “Granulocytes (10^6/ml)” value is given as 0.2 ± 0.02^b 10^6/ml, the “Lymphocytes (10^6/ml)” value is 0.07 ± 0.01^b 10^6/ml, the “Monocytes (10^6/ml)” value is reported as 0.01 ± 0.01^b 10^6/ml and the “Total WBC (10^6/ml)” value was 0.3 ± 0.02^b 10^6/ml. Besides, the “WBC count, fraction of control values” in the data set with white blood cells [9] is listed as “about ⅓”. Also, in the data set with white blood cells [1] (CP 200 mg IP alone, two days after CP treatment (FIG. 1B)), the “granulocyte count in the blood, of baseline value” was “about 25%”. Further, in the data set with white blood cells [1] (CP 200 mg IP alone, two days after treatment (FIG. 1A)), the “WBC, fraction of the baseline counts” value was “about ⅕”. For the same compound, in the data set on germ cells (setting [10]), the “differentiated germ cells of mice” value is “eliminated” and the “undifferentiated germ cells remained” value was “about half”. Moreover, in the data set on germ cells (once CP treatment was stopped (Drumond, et al., 2011)), the “germ cells regenerated from undifferentiated stem cells” value was “about 64%”.

Values taken from patent US20170216399A1, “COMPOSITIONS, METHODS AND USES FOR PROTECTING WHITE BLOOD CELLS FROM SUPPRESSION OR DEATH” (LOS ANGELES BIOMEDICAL RESEARCH INSTITUTE AT HARBO-UCLA …, priority 2014, published 2017).
